# Reference: patent US20230322715A1, “BROAD SPECTRUM ANTI-CANCER COMPOUNDS” (The Regents of the University of California, priority 2019, published 2023)
# Read-outs that look alike come from different tables or passages of the source.
# Tests used:
# YTHDF1 = YTHDF1 (Homo sapiens (Human), UniProt Q9BYJ9); assay: In vitro FRET assay for binding affinities of YTH inhibitors, YTHDF1
# Excerpt: (§1) FIG. 8-2 depicts possible design and synthesis of compound libraries. In Vitro FRET assay development could yield a high throughput FRET assay to determine binding affinities for potential YHT inhibitors against YTHDF1, YTHDF2, YTHDF3, or other similar proteins.
# YTHDF2 = YTHDF2 (Homo sapiens (Human), UniProt Q9Y5A9); assay: In vitro FRET assay for binding affinities of YTH inhibitors, YTHDF2
# Excerpt: as §1
# FTO = FTO (Homo sapiens (Human), UniProt Q9C0B1); assay: Fluorescence enzymatic inhibition assay (m6A7-Broccoli RNA / DFHBI-1T) against FTO; type: biochemical; conditions: for precipitation in assay buffer: dose response could not be determined
# Method: In order to determine their efficacy as FTO inhibitors, the compounds were screened by a fluorescence enzymatic inhibition assay developed previously by the Jaffrey lab.^44 Briefly, a nonfluorescent methylated RNA substrate termed “m6A7-Broccoli” is incubated with FTO in the presence of 2-oxoglutarate (300 μM), (NH4)2Fe(SO4)2·6H2O (300 μM), and L-ascorbate (2 mM) for 2 hours at room temperature in reaction buffer (50 mM NaHEPES, pH 6).
# (§2) Inhibitors were added in concentrations ranging from 0.008-40 μM; all inhibitors were dissolved in DMSO and added to a final concentration of 0.2% DMSO. […] After incubation at room temperature for 2 hours, the plates were left at 4° C. overnight (16 hours) to allow DFHBI-1T to bind to A7-Broccoli RNA. […] Sigmoidal dose-response curves were fitted in GraphPad Prism 6. All assays were performed in triplicate, with additional repetitions added as necessary.
# ALKBH5 = ALKBH5 (Homo sapiens (Human), UniProt Q6P6C2); assay: Fluorescence enzymatic inhibition assay (m6A7-Broccoli RNA / DFHBI-1T) against ALKBH5; type: biochemical
# Method: as §2
# [1] = elogD / log D determination
# [2] = Ki values for YTH library against YTHDF2, read-out: Ki
# [3] = m6A7-Broccoli fluorescence assay, 0.250 μM FTO, inhibitor up to 40 μM, triplicate, read-out: Enzymatic IC50 FTO
# [4] = Table 700 compounds, read-out: Enzymatic IC50 FTO
# [5] = Table 700 compounds, read-out: Enzymatic IC50 ALKBH5
# [6] = Table 800 compounds, read-out: FTO IC50
# [7] = Table 800 compounds, read-out: ALKBH5 IC50
# Chain of YTHDF2 (Q9Y5A9 whole entry): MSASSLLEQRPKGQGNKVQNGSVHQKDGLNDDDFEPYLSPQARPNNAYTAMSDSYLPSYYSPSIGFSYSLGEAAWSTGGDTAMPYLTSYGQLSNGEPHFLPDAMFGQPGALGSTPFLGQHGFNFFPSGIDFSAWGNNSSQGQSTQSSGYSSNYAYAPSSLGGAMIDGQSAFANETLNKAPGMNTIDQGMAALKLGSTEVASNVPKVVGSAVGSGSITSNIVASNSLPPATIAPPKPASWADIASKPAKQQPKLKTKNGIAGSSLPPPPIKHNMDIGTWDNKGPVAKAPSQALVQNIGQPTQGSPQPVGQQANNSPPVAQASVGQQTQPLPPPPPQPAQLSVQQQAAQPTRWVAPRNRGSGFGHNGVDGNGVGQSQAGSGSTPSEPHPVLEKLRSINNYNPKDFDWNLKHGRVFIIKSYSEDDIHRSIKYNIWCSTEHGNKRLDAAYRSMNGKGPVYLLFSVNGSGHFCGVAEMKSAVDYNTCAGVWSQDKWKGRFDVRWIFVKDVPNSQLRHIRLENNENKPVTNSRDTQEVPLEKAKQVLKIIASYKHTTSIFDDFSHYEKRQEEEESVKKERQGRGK
# Chain of YTHDF1 (Q9BYJ9 whole entry): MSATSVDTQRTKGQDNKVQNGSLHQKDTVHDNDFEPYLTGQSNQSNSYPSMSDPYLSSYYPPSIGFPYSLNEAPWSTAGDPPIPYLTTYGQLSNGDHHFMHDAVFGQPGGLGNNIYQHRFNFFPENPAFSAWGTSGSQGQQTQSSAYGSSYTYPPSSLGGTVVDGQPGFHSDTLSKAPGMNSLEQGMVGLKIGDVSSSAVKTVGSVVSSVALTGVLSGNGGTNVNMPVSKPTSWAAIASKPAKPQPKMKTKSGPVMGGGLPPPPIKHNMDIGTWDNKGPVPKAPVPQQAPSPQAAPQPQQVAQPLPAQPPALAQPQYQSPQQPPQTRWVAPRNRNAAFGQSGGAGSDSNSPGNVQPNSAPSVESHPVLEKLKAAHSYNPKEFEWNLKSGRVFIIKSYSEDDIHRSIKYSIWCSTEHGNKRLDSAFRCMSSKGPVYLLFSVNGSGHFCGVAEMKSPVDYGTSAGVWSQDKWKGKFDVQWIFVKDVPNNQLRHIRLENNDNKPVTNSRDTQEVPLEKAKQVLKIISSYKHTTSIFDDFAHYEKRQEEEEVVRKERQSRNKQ
# Chain of FTO (Q9C0B1 whole entry): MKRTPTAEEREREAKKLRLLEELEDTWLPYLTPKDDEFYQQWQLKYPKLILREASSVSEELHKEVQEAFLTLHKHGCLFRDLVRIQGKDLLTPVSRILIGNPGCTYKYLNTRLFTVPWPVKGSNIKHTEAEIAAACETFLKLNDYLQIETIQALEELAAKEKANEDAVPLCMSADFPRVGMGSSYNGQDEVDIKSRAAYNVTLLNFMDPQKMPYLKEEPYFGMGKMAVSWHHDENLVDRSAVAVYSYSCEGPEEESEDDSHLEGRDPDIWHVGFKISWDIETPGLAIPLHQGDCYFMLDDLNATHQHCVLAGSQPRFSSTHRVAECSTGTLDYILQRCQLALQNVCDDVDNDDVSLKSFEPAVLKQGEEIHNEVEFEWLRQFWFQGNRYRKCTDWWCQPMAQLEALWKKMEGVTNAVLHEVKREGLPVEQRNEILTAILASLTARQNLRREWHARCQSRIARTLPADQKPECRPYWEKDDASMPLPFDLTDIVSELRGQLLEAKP
# Chain of ALKBH5 (Q6P6C2 whole entry): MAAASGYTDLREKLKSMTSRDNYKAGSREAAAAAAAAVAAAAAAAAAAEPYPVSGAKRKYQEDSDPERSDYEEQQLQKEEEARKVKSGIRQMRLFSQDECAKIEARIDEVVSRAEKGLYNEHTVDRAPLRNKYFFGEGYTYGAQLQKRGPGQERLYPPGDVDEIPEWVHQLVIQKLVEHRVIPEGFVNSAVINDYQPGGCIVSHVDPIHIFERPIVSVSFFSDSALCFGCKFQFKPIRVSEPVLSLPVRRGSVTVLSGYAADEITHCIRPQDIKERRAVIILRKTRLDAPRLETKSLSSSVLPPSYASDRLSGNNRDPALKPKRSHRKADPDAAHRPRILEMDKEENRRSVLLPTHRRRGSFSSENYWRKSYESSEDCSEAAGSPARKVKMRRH
SMILES,Ki (YTHDF1; read-out: Ki (pM) YTHDF1),Ki (YTHDF1; read-out: Ki YTHDF1),Ki (YTHDF2; [2]),Ki (YTHDF2; read-out: Ki (pM) YTHDF2),Ki (YTHDF2; read-out: Ki YTHDF2),other results
FC(F)(F)c1ccc(CNc2ccc(CNC3CC3)cn2)cc1 [TR-YTH-07],162 ± 30 pM,162 ± 30 pM,77 ± 18 pM,77 ± 18 pM,77 ± 18 pM,
"COCCNc1ncc(-c2ccc3cc(OC)ccc3c2)cn1 [FTO-15, N-(2-methoxyethyl)-5-(6-methoxynaphthalen-2-yl)pyrimidin-2-amine]",,,,,,precipitation in assay buffer (FTO): significant precipitation; melting point: 230 °C
Fc1ccc(CNc2ccc(CNC3CC3)cn2)cc1 [TR-YTH-08],880 ± 194 pM,880 ± 194 pM,,,,
"COCCNc1ncc(-c2ccc3ccc(O)cc3c2)cn1 [FTO-17, 7-(2-((2-methoxyethyl)amino)pyrimidin-5-yl)naphthalen-2-ol]",,,,,,IC50 (FTO; [3]): 51900 nM; melting point: 230 °C
Cc1ccc(Nc2ccc(CNC3CC3)cn2)cc1C [TR-YTH-12],1420 ± 375 pM,1420 ± 375 pM,850 ± 115 pM,850 ± 115 pM,850 ± 115 pM,
"COc1ncc(-c2cccc(OCc3ccccc3)c2)cn1 [FTO-3, 5-(3-(benzyloxy)phenyl)-2-methoxypyrimidine]",,,,,,precipitation in assay buffer (FTO): significant precipitation; melting point: 230 °C
COc1ccc(CNc2ccc(CNC3CC3)cn2)cc1 [TR-YTH-01],164 ± 21 pM,164 ± 21 pM,102 ± 15 pM,102 ± 15 pM,102 ± 15 pM,
COc1ccc(CNc2ccc(CNC3CC3)cn2)c(OC)c1 [TR-YTH-02],229 ± 57 pM,229 ± 57 pM,182 ± 69 pM,182 ± 69 pM,182 ± 69 pM,
c1cncc(CNc2ccc(CNC3CC3)cn2)c1 [TR-YTH-05],90 ± 10 pM,90 ± 10 pM,70 ± 12 pM,70 ± 12 pM,70 ± 12 pM,
"COc1ncc(-c2ccc(CO)c(OC)c2)cn1 [FTO-6, (2-methoxy-4-(2-methoxypyrimidin-5-yl)phenyl)methanol]",,,,,,selectivity between FTO and ALKBH5 (FTO; comparison of enzymatic IC50 values): five-fold or higher; IC50 (FTO; [3]): 13800 ± 2400 nM; melting point: 230 °C
Fc1ccc(CNc2ccc(CNC3CC3)cn2)cc1F [TR-YTH-06],285 pM,285 ± 154 pM,395 ± 51 pM,395 ± 51 pM,395 ± 51 pM,
COc1ccc(CNc2ccc(CN(C)C)cn2)cc1 [TR-YTH-16],214 ± 50 pM,214 ± 50 pM,179 ± 36 pM,179 ± 36 pM,179 ± 36 pM,
CC(Nc1ccc(CNC2CC2)cn1)c1ccccc1 (stereo not shown) [TR-YTH-04],129 ± 6 pM,129 ± 6 pM,100 ± 34 pM,100 ± 34 pM,100 ± 34 pM,
"COCCNc1ncc(-c2ccc3cc(O)ccc3c2)cn1 [FTO-16, 6-(2-((2-methoxyethyl)amino)pyrimidin-5-yl)naphthalen-2-ol]",,,,,,IC50 (FTO; [3]): 46500 nM; melting point: 230 °C
CC(Nc1ccc(CN(C)C)cn1)c1ccccc1 (stereo not shown) [TR-YTH-18],209 ± 27 pM,209 ± 27 pM,95 ± 13 pM,95 ± 13 pM,95 ± 13 pM,
C[C@]1(Cn2ccnn2)C(C(=O)O)N2C(=O)C[C@H]2S1(=O)=O (stereo partly shown) [ALK-08],,,,,,IC50 (FTO; [4]): > 40000 nM; IC50 (ALKBH5; [5]): 9900 ± 1300 nM; elogD ([1]; Table 700 compounds): 0.36

SMILES,Ki (YTHDF1; read-out: Ki (pM) YTHDF1),Ki (YTHDF1; read-out: Ki YTHDF1),Ki (YTHDF2; [2]),Ki (YTHDF2; read-out: Ki (pM) YTHDF2),Ki (YTHDF2; read-out: Ki YTHDF2),other results
FC1CCN(C2(CNCc3ccc(-c4ccccc4)o3)COC2)C1 (stereo not shown) [TR-FTO-48],,,,,,"IC50 (FTO; [3]): 2000 nM; IC50 (ALKBH5; m6A7-Broccoli fluorescence assay, 0.250 μM ALKBH5, read-out: Enzymatic IC50 ALKBH5): 2600 nM; elogD [1]: 1.34"
O=S(=O)(Nc1nccnc1O)c1ccc(OC(F)(F)F)cc1 [TR-ALKBH5-31],,,,,,IC50 (FTO; [6]): > 40000 nM; IC50 (ALKBH5; [7]): 13700 nM; elogD ([1]; Table 800 compounds): 2.33
C[C@@H](NS(=O)(=O)c1ccc(OC(F)(F)F)cc1)c1cccnc1 [TR-ALKBH5-42],,,,,,IC50 (FTO; [6]): 285000 nM; IC50 (ALKBH5; [7]): 250 nM; elogD ([1]; Table 800 compounds): 0.83
O=S(=O)(Nc1cc(F)ccc1O)c1ccc(OC(F)(F)F)cc1 [TR-ALKBH5-30],,,,,,IC50 (FTO; [6]): > 40000 nM; IC50 (ALKBH5; [7]): 1000 nM; elogD ([1]; Table 800 compounds): 0.81
CN(Cc1ccc(C(F)(F)F)cc1)c1ccc(CNC2CC2)cn1 [TR-YTH-10],615 ± 107 pM,615 ± 107 pM,106 ± 26 pM,106 ± 26 pM,106 ± 26 pM,
O=S(=O)(Nc1ccc(Cl)c(C(F)(F)F)c1)c1ccc(OC(F)(F)F)cc1 [TR-ALKBH5-25],,,,,,IC50 (FTO; [6]): > 40000 nM; IC50 (ALKBH5; [7]): 1600 nM; elogD ([1]; Table 800 compounds): 1.50
Fc1ccnc(Nc2ccc(CNC3CC3)cn2)c1 [TR-YTH-15],236 ± 51 pM,236 ± 51 pM,145 ± 33 pM,145 ± 33 pM,145 ± 33 pM,
CC1(C)S[C@@H]2[C@H](N)C(=O)N2[C@H]1C(=O)O [ALK-07],,,,,,IC50 (FTO; [4]): > 40000 nM; IC50 (ALKBH5; [5]): 10000 ± 2800 nM; elogD ([1]; Table 700 compounds): 0.95
Fc1cccc(F)c1CNc1ccc(CNC2CC2)cn1 [TR-YTH-09],281 ± 9 pM,281 ± 9 pM,172 ± 49 pM,172 ± 49 pM,172 ± 49 pM,
COc1ccc(CNc2ccc(CNC3CC3)cn2)cc1OC [TR-YTH-03],123 ± 6 pM,123 ± 6 pM,85 ± 26 pM,85 ± 26 pM,85 ± 26 pM,
O=S(=O)(NCC1CCCOC1)c1ccc(OC(F)(F)F)cc1 (stereo not shown) [TR-ALKBH5-04],,,,,,IC50 (FTO; [6]): 19700 nM; IC50 (ALKBH5; [7]): 240 nM; elogD ([1]; Table 800 compounds): 0.37
O=S(=O)(Nc1cccs1)c1ccc(OC(F)(F)F)cc1 [TR-ALKBH5-27],,,,,,IC50 (FTO; [6]): > 40000 nM; IC50 (ALKBH5; [7]): 2000 nM; elogD ([1]; Table 800 compounds): 0.36
O=S(=O)(NCC1CCCOC1)c1ccccc1 (stereo not shown) [TR-ALKBH5-08],,,,,,IC50 (FTO; [6]): 6400 nM; IC50 (ALKBH5; [7]): 500 nM; elogD ([1]; Table 800 compounds): 0.89
"Cc1ccc2cc(-c3cnc(N)nc3)ccc2n1 [FTO-14, 5-(2-methylquinolin-6-yl)pyrimidin-2-amine]",,,,,,IC50 (FTO; [3]): 59600 nM; melting point: 230 °C
CN(C)Cc1ccc(NCc2ccc(F)cc2)nc1 [TR-YTH-19],391 ± 66 pM,391 ± 66 pM,107 ± 19 pM,107 ± 19 pM,107 ± 19 pM,
CC(C)(C)OC(=O)N1CCC(F)(C2NCCS2)C1 (stereo not shown) [ALK-02],,,,,,IC50 (FTO; [4]): > 40000 nM; IC50 (ALKBH5; [5]): 16600 nM; elogD ([1]; Table 700 compounds): 1.40
